Data from US6902744B1, “Exendin agonist formulations and methods of administration thereof” (Amylin Pharmaceuticals, Inc., priority 1999, dated 2005).

System: Sprague-Dawley rats
Assay: Insulinotropic action during an intravenous glucose challenge in rats
Format: in vivo
Conditions: peptide 30 pmol/kg/min i.v.; n.s. versus saline

GLP-1[7-36]NH2
increase of 60-min insulin AUC versus saline-treated rats: 20%
